Here are results for 2 compounds from ChEMBL document CHEMBL1806496, “Nothospondin, a new AP-1 inhibitory quassinoid from the Cameroonian plant Nothospondias staudtii” (Bioorg Med Chem Lett, 2011).

For data set [1], the system named is HEK-293T. Put plainly: Cytotoxicity against human HEK293T cells expressing AP-1 at 80 uM after 18 hrs by XTT assay. It is filed as cell-based. (Formazan colour is commonly taken as a measure of viable cells.)
The target in the next data set is Transcription factor Jun (Homo sapiens, UniProt P05412). Put plainly: Inhibition of TPA-induced AP-1 activity expressed in human HEK293T cells treated 1 hr before TPA challenge measured after 18 hrs by FRET based beta-lactamase reporter assay. It is filed as cell-based, HEK-293T. The conditions noted are these: for inhibition: HEK-293T. On the technique in general: Reporter assays use an easily measured gene product as a stand-in for the process of interest.
Sequence of Transcription factor Jun (P05412 whole entry): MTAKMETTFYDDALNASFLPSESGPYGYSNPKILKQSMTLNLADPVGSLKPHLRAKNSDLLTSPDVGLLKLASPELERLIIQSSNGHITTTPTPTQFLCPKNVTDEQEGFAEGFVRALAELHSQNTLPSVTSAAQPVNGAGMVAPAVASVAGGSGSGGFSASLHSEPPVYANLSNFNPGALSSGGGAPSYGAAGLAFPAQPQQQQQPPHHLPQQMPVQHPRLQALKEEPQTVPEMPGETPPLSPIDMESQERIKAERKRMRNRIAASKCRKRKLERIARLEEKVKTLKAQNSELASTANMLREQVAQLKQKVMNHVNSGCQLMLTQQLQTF

Data set [2] concerns HEK-293T. In words: Cytotoxicity against human HEK293T cells expressing AP-1 after 18 hrs by XTT assay. It is filed as cell-based.

With `CC[C@](C)(O)C(=O)O[C@H]1C(=O)O[C@@H]2C[C@H]3C(C)=CC(=O)[C@@H](O)[C@]3(C)[C@H]3[C@@]4(O)OC[C@]32[C@@H]1[C@@H](C)[C@H]4O` [GLAUCARUBINONE], the Activity result with HEK-293T [1] was “Non-toxic”. At Transcription factor Jun, a half-maximal effect (EC50) was put at 130 nM and the inhibition result was “Dose-dependent effect”.

For the compound `COC1=C(C)[C@@H]2CC(=O)O[C@@H]3C[C@H]4[C@H](C)[C@@H](O)[C@H](O)C(=O)[C@]4(C)[C@@H](C1=O)[C@@]32C` [NOTHOSPONDIN], in the data set with HEK-293T [2], the IC50 (in general, the concentration at which inhibition is half-maximal) came to 10000 nM. At Transcription factor Jun, the EC50 (usually the concentration needed to bring the measured effect to its halfway point) was found to be 1490 nM and the inhibition result is “Dose-dependent effect”.
